# In PubChem BioAssay (NCI):
#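 Briefly, cells in 96-well plates were exposed to five compound concentrations for 48 h, and endpoints were estimated by linear interpolation. GI50 = concentration required for 50% inhibition of growth. TGI denotes the concentration required for complete inhibition of growth.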
# How the values were obtained:
# Assay in all cases: NCI-60 cell line screen, 48 h
# MOLT-4 leukemia = system: MOLT-4 leukemia
# UO-31 renal = system: UO-31 renal
# CCRF-CEM leukemia = system: CCRF-CEM leukemia
# HOP-62 NSCLC = system: HOP-62 NSCLC
# SNB-19 CNS = system: SNB-19 CNS
# BT-549 breast = system: BT-549 breast
# SF-295 CNS = system: SF-295 CNS
# SR leukemia = system: SR leukemia
# HS 578T breast = system: HS 578T breast
# NCI-H522 lung = system: NCI-H522 lung
# NCI-H23 lung = system: NCI-H23 lung
# SF-268 CNS = system: SF-268 CNS
# OVCAR-8 ovarian = system: OVCAR-8 ovarian
# SW-620 colon = system: SW-620 colon
# NCI/ADR-RES ovarian = system: NCI/ADR-RES ovarian
# A549 NSCLC = system: A549 NSCLC
# SK-MEL-28 melanoma = system: SK-MEL-28 melanoma
# NCI-H226 lung = system: NCI-H226 lung
# SNB-75 CNS = system: SNB-75 CNS
# EKVX NSCLC = system: EKVX NSCLC
# NCI-H460 lung = system: NCI-H460 lung
# HT29 colon = system: HT29 colon
# KM12 colon = system: KM12 colon
# ACHN renal = system: ACHN renal
# MALME-3M melanoma = system: MALME-3M melanoma
# MDA-MB-435 = system: MDA-MB-435
# HCC-2998 colon = system: HCC-2998 colon
# OVCAR-4 ovarian = system: OVCAR-4 ovarian
# MCF7 breast = system: MCF7 breast
# LOX IMVI melanoma = system: LOX IMVI melanoma
# SK-OV-3 ovarian = system: SK-OV-3 ovarian
# CAKI-1 renal = system: CAKI-1 renal
# SK-MEL-5 melanoma = system: SK-MEL-5 melanoma
# U251 CNS = system: U251 CNS
# MDA-MB-231 breast = system: MDA-MB-231 breast
# TK-10 renal = system: TK-10 renal
# T-47D breast = system: T-47D breast
# UACC-62 melanoma = system: UACC-62 melanoma
# IGROV1 ovarian = system: IGROV1 ovarian
# RPMI-8226 leukemia = system: RPMI-8226 leukemia
# DU-145 prostate = system: DU-145 prostate
# SK-MEL-2 melanoma = system: SK-MEL-2 melanoma
# HCT-116 colon = system: HCT-116 colon
# 786-0 renal = system: 786-0 renal
# SN12C renal = system: SN12C renal
# HCT-15 colon = system: HCT-15 colon
# HL-60(TB) leukemia = system: HL-60(TB) leukemia
# A498 renal = system: A498 renal
# K-562 leukemia = system: K-562 leukemia
# SF-539 CNS = system: SF-539 CNS
# PC-3 prostate = system: PC-3 prostate
# OVCAR-5 ovarian = system: OVCAR-5 ovarian
# UACC-257 melanoma = system: UACC-257 melanoma
# M14 melanoma = system: M14 melanoma
structure (smiles),measurement,setting,value
COc1cc(-c2nnc(SCc3ccc(O)c4ncccc34)n2-c2ccccc2)cc(OC)c1OC,GI50,MOLT-4 leukemia,294 nM
same,TGI,MOLT-4 leukemia,> 100000 nM
same,GI50,UO-31 renal,113 nM
same,TGI,UO-31 renal,991 nM
same,GI50,CCRF-CEM leukemia,188 nM
same,TGI,CCRF-CEM leukemia,> 100000 nM
same,GI50,HOP-62 NSCLC,261 nM
same,GI50,SNB-19 CNS,128 nM
same,TGI,SNB-19 CNS,> 100000 nM
same,GI50,BT-549 breast,178 nM
same,TGI,BT-549 breast,> 26000 nM
same,GI50,SF-295 CNS,200 nM
same,TGI,SF-295 CNS,> 100000 nM
same,GI50,SR leukemia,140 nM
same,TGI,SR leukemia,> 100000 nM
same,GI50,HS 578T breast,161 nM
same,GI50,NCI-H522 lung,86.3 nM
same,TGI,NCI-H522 lung,921 nM
same,GI50,NCI-H23 lung,75.7 nM
same,TGI,NCI-H23 lung,> 100000 nM
same,GI50,SF-268 CNS,218 nM
same,TGI,SF-268 CNS,> 100000 nM
same,GI50,OVCAR-8 ovarian,102 nM
same,TGI,OVCAR-8 ovarian,> 100000 nM
same,GI50,SW-620 colon,158 nM
same,TGI,SW-620 colon,> 100000 nM
same,GI50,NCI/ADR-RES ovarian,67.8 nM
same,TGI,NCI/ADR-RES ovarian,> 100000 nM
same,GI50,A549 NSCLC,412 nM
same,TGI,A549 NSCLC,> 100000 nM
same,GI50,SK-MEL-28 melanoma,367 nM
same,TGI,SK-MEL-28 melanoma,> 100000 nM
same,GI50,NCI-H226 lung,359 nM
same,TGI,NCI-H226 lung,> 100000 nM
same,GI50,SNB-75 CNS,229 nM
same,TGI,SNB-75 CNS,> 20200 nM
same,GI50,EKVX NSCLC,367 nM
same,TGI,EKVX NSCLC,> 100000 nM
same,GI50,NCI-H460 lung,50 nM
same,TGI,NCI-H460 lung,2030 nM
same,GI50,HT29 colon,2040 nM
same,TGI,HT29 colon,> 100000 nM
same,GI50,KM12 colon,336 nM
same,TGI,KM12 colon,> 100000 nM
same,GI50,ACHN renal,285 nM
same,TGI,ACHN renal,> 100000 nM
same,GI50,MALME-3M melanoma,336 nM
same,TGI,MALME-3M melanoma,> 20600 nM
same,GI50,MDA-MB-435,194 nM
same,TGI,MDA-MB-435,> 100000 nM
same,GI50,HCC-2998 colon,447 nM
same,TGI,HCC-2998 colon,> 100000 nM
same,GI50,OVCAR-4 ovarian,400 nM
same,TGI,OVCAR-4 ovarian,> 100000 nM
same,GI50,MCF7 breast,37.7 nM
same,TGI,MCF7 breast,> 100000 nM
same,GI50,LOX IMVI melanoma,180 nM
same,TGI,LOX IMVI melanoma,4440 nM
same,GI50,SK-OV-3 ovarian,302 nM
same,TGI,SK-OV-3 ovarian,23500 nM
same,GI50,CAKI-1 renal,274 nM
same,TGI,CAKI-1 renal,> 100000 nM
same,GI50,SK-MEL-5 melanoma,207 nM
same,TGI,SK-MEL-5 melanoma,899 nM
same,GI50,U251 CNS,66 nM
same,TGI,U251 CNS,> 100000 nM
same,GI50,MDA-MB-231 breast,390 nM
same,TGI,MDA-MB-231 breast,> 100000 nM
same,GI50,TK-10 renal,291 nM
same,TGI,TK-10 renal,> 100000 nM
same,GI50,T-47D breast,71.2 nM
same,TGI,T-47D breast,> 100000 nM
same,GI50,UACC-62 melanoma,331 nM
same,TGI,UACC-62 melanoma,2340 nM
same,GI50,IGROV1 ovarian,272 nM
same,TGI,IGROV1 ovarian,> 100000 nM
same,GI50,RPMI-8226 leukemia,190 nM
same,TGI,RPMI-8226 leukemia,> 100000 nM
same,GI50,DU-145 prostate,273 nM
same,TGI,DU-145 prostate,> 100000 nM
same,GI50,SK-MEL-2 melanoma,197 nM
same,TGI,SK-MEL-2 melanoma,626 nM
same,GI50,HCT-116 colon,97.9 nM
same,TGI,HCT-116 colon,> 40300 nM
same,GI50,786-0 renal,498 nM
same,TGI,786-0 renal,> 20900 nM
same,GI50,SN12C renal,211 nM
same,TGI,SN12C renal,> 100000 nM
same,GI50,HCT-15 colon,53 nM
same,TGI,HCT-15 colon,> 100000 nM
same,GI50,HL-60(TB) leukemia,276 nM
same,GI50,A498 renal,320 nM
same,TGI,A498 renal,2320 nM
same,GI50,K-562 leukemia,83 nM
same,TGI,K-562 leukemia,> 100000 nM
same,GI50,SF-539 CNS,262 nM
same,GI50,PC-3 prostate,87.4 nM
same,TGI,PC-3 prostate,> 100000 nM
same,GI50,OVCAR-5 ovarian,668 nM
same,TGI,OVCAR-5 ovarian,> 100000 nM
same,GI50,UACC-257 melanoma,342 nM
same,TGI,UACC-257 melanoma,3220 nM
same,GI50,M14 melanoma,386 nM
same,TGI,M14 melanoma,2420 nM
